Source: patent US20180183541A9, “A New Treatment For Improving The Use Of Dietary Sugar For Energy Purposes” (Nutravis S.r.l., priority 2014, published 2018)
Where two headings read alike, the source gives them in different places.

Experiments:
[1] = Stability tests of ABA at high temperatures (autoclave sterilization); format: physicochemical; conditions: autoclave sterilization at 121° C. for 8 min; HPLC-MS
Method: Experiments were performed to evaluate the heat stability of synthetic ABA or of ABA naturally present in aqueous and supercritical extracts. Samples containing known nanomolar concentrations of ABA (either synthetic or present in the extracts) were divided into two aliquots of equal volume and subjected or not (control) to autoclave sterilization at 121° C. for 8 min (the condition generally applied to the sterilization of food). After sterilization, 100 μl of each aliquot and its un-sterilized control were injected into an analytical Hypercarb column (Thermo Scientific, Pittsburgh, Pa.) (4.6×100 mm; particle size 5 μm). Solvent A was water containing 0.1% formic acid (FOA), solvent B was acetonitrile containing 0.1% FOA and solvent flux was 0.8 ml/min. The linear elution gradient was from 100% A to 100% B in 30 min. Fractions were taken every 30 sec, lyophilized, re-dissolved in 11 μl of a solution composed of 90% solvent A and 10% solvent B of the HPLC-coupled mass spectrometry analysis and [^2H6]-ABA was added as an internal standard. Samples were analyzed as previously described under “Determination of the ABA content in several foods”. The amount of ABA present in the aliquots subjected to sterilization was unchanged compared with that measured in the control samples.

db/db mice = conditions: cited from earlier work
Male CD1 mice = test: Muscle performance in mice (spontaneous wheel running); format: in vivo, mouse; conditions: ABA 1 μg/Kg BW with glucose 1 g/Kg BW for 12 weeks
Method: Male CD1 mice (outbread) (8 per group) were administered glucose with the drinking water without (controls) or with the addition of synthetic ABA. The concentrations of glucose and of ABA in water were calculated considering the average daily volume drank by each mice so as to reach a dose of 1 g/Kg BW and 1 μg/Kg BW of ABA. After 12 weeks of treatment the mice (average weight 45.1 and 43.3 grams for the animals treated with glucose and glucose+ABA, respectively) were kept 12 hours in two separate cages, each equipped with a wheel connected to a digital odometer measuring the total distance traveled on the wheel and the time of rotation of the wheel. The tests were performed during the night time on animals with freely available food and water containing glucose alone (controls) or glucose+ABA. The reason for using male CD1 mice for this experiment is their natural predisposition to develop more muscle mass compared to females from the same strain.
Table 6. […] Male CD1mice (outbred) (8/group) with a mean weight of 45.1 and 43.3 g for animals treated with glucose and glucose+ABA, respectively, were kept for the same time (12 hours) in two cages, each containing a wheel connected to a digital cyclometer, capable of measuring the total distance travelled and the duration of rotation of the wheel. The tests (n=2 for each group of animals) were performed during the night hours, with ad libitum food and water, containing glucose (controls) or glucose+ABA.

[2] = Body weight gain induced by chronic high-dose glucose in mice; format: in vivo, mouse; conditions: female CD1 mice, ABA 1 μg/Kg BW with glucose 1 g/Kg BW daily in drinking water, 12 weeks
Method: Five, week-old female CD1 mice (outbread) (9 per group) were administered glucose in the drinking water, without (controls) or with the addition of synthetic ABA. To achieve the required daily dose of glucose (1 g/kg BW) and of ABA (1 μg/Kg BW) the daily volume of water drank by the animals used for the test was preliminary established. Based on this volume (5 ml/day), and taking into account an average weight of the mice of 30 grams, the water administered to the animals, contained 0,006 g/ml of glucose and 0,006 μg/ml ABA. The weight control was performed after 12 weeks of treatment on the two groups of animals fasted for 17 hours before measurement of the weight. The reason for using female CD1 for this test was that they show a natural predisposition to accumulation of adipose tissue that is not found, instead, in males of the same strain.
FIG. 8. Daily oral intake of synthetic ABA at the dose of 1 μg/Kg reduces the body weight increase induced by the chronic intake of high-dose glucose (1g/Kg) in mice. Five-week old female CD1 mice (outbred) (9/group) received daily, in the drinking water, a glucose solution without (controls) or with synthetic ABA (see Materials and Methods for details). Body weight was determined after 12 weeks of treatment, and both groups of animals were fasted for 17 hours before measurement. […]

myoblasts = myoblasts incubated in vitro with 100 nM ABA (Bruzzone et al. 2012); cited from earlier work
[3] = In vivo hydrolysis of orally given ABA-GE to ABA, plasma HPLC-MS; design: species or system rat; conditions: 30 and 60 min after gavage of synthetic ABA-GE, Wistar rats n=3
Excerpt: Wistar rats (n=3) were given an amount of synthetic ABA-GE by gavage in order to evaluate its in vivo hydrolysis, resulting in the release of ABA. […] Therefore, the ABA-GE present in the aqueous apricot extract contributes to the effective dose of ABA taken with the extract, as it can be hydrolyzed to yield free ABA.
FIG. 4: HPLC-MS analysis of representative plasma samples from a rat subjected to gavage with a solution containing synthetic ABA-GE. […] The amount of ABA released by hydrolysis from its conjugated form ABA-GE at different times (30 and 60 min after gavage) was measured by HPLC-MS. The coefficient of absorbance of ABA-GE at 254 nm, used for chromatographic analysis, is approximately 10 times lower than that of free ABA. This explains the different area of their respective chromatographic peaks.

[4] = synthetic ABA 1 μg/Kg BW during OGTT
[5] = synthetic ABA 1 μg/Kg BW with glucose 1 g/Kg BW by gavage

Method for Wistar male rats: For the determination of blood glucose in rats, blood samples were taken from the tail vein of anesthetized animals and blood glucose was measured with a glucometer (Bayer). The quantification of insulin on the same animals, was carried out by sampling blood from the orbital sinus, immediately adding heparin and subjecting each sample to centrifugation at 22000×g for 30 sec: aliquots of plasma were stored at −20° C. The plasma insulin concentration was determined with an ELISA kit (Bertin-Pharma, Montigny, France).
Wistar male rats (obtained from Charles River, Milan, Italy), age between 9 and 13 weeks, were divided into two groups (12 animals per group) and fasted for 17 hours. After mild sedation with diazepam, 1 g/kg BW of glucose was administered by gavage in about 300-400 μl of aqueous solution, containing or not 1 μg/Kg BW of synthetic ABA, or the same dose of ABA or ABA-GE endogenously present in a supercritical or water plant extract. Immediately after gavage, rats were anesthetized with xylazine and ketamine. Blood glucose was measured with a glucometer on blood taken from the tail vein immediately before gavage (time zero) and 15, 30 and 60 minutes after gavage. Each measurement was performed in duplicate.
Two groups of male Wistar rats (12 animals per group), fasted for 17 hours, were subjected to an OGTT (1 g/Kg BW glucose) , without or with 1 μg/Kg BW of synthetic ABA. Glycemia was measured with a glucometer in duplicate on blood taken from the tail vein at baseline (immediately before gavage) and at the indicated times after gavage. Insulinemia was measured by ELISA, in duplicate on plasma samples. Results are mean ±SD.

SMILES | amount of ABA after sterilization compared with control samples [1] | glycemic profile compared to the controls (Wistar male rats; ABA 95 μg/Kg BW during OGTT) | glycemic profile compared to the controls (Wistar male rats; ABA 100 mg/Kg BW during OGTT) | insulin AUC compared to control rats (Wistar male rats; ABA 100 mg/Kg BW during OGTT) | insulin response to the glucose load (Wistar male rats; ABA 1 and up to 95 μg/Kg BW) | plasma concentration corresponding to the dose (Wistar male rats; male, Wistar, rat, in vivo) | mean level of plasmatic insulin compared to controls (Wistar male rats; [4]) | reduction of insulin AUC compared to controls (Wistar male rats; [4]) | AUC of glycemia compared to the controls (Wistar male rats; [5]) | glycemic profile compared to the controls (Wistar male rats; [5]) | minimum effective dose improving glucose tolerance (db/db mice; dietary intake, mice diabetic by leptin receptor mutation (Guri et al., 2007)) | weight increase compared with the controls (db/db mice; mice chronically treated with ABA at 100 mg/Kg BW (literature)) | maximal speed recorded compared with that of the controls (Male CD1 mice) | Time of use (Male CD1 mice; wheel available 12 hours) | Total distance covered (m) (Male CD1 mice; wheel available 12 hours) | weight increase compared to the controls [2] | glucose transport (myoblasts) | chromatographic peak of free ABA in plasma compared to 0 min [3]
CC1=CC(=O)CC(C)(C)C1(O)/C=C/C(C)=C\C(=O)O (racemic) [ABA, 2-cis, 4-trans-abscisic acid] | unchanged | reduced compared to the controls | reduced compared to the controls | comparable to that of control rats | significant decrease | less than 10 nM | significantly lower | about 15 times | significantly lower AUC of glycemia | significantly reduced glycemic profile | 100 mg/kg | not dissimilar compared with the controls | 3.2 times | 105 min | 2693 m | significantly lower weight increase | increased glucose transport | –
CC1=CC(=O)CC(C)(C)[C@@]1(O)/C=C/C(C)=C\C(=O)O[C@@H]1O[C@H](CO)[C@@H](O)[C@H](O)[C@H]1O [ABA-GE, ABA-glucosyl ester] | – | – | – | – | – | – | – | – | – | – | – | – | – | – | – | – | – | marked increase
